Reference: ChEMBL document CHEMBL1201862, “PubChem BioAssay data set” (2004)
Activity calls are given as the source filed them.

Tests used:
[1] = molecular target: NAD-dependent protein deacylase sirtuin-5, mitochondrial (Homo sapiens, UniProt Q9NXA8); assay: SIRT5 desuccinylase inhibitors, dose response, biochemical, fluorescence imaging, cherry-pick, set 5 (AID 720591);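 further: desuccinylation of succinyl peptide AMC substrate read as fluorescence after trypsin release; potency of inhibitors that lower fluorescence and may act on trypsin instead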
Kallikrein-7 = Kallikrein-7 (Homo sapiens, UniProt P49862); assay: Fluorescence Intensity-based biochemical primary high throughput dose response assay to identify activators of kallikrein-7 (K7) zymogen.
[2] = NIH-3T3 fibroblast cytotoxicity, dose response, cytotoxicity control, cell-based, fluorescence, Alamar Blue, secondary assay (AID 2327); format: functional;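 further: NIH-3T3 mouse fibroblasts cultured with fluconazole at 8 µg/mL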
[3] = C. albicans growth with fluconazole, confirmation, fluorescence, retest (AID 2467); format: functional, cell-based
[4] = molecular target: T1, Serine/threonine-protein phosphatase (Candida dubliniensis (strain CD36 / CBS 7987 / NCPF 3949 / NRRLY-17841) (Yeast), UniProt B9W6M3); assay: calcineurin pathway inhibitors in yeast reporter, dose response, S. cerevisiae, CDRE-lacZ, luminescence, secondary (AID 2388); format: functional, cell-based;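 further: yeast reporter cells carrying a calcineurin-responsive lacZ construct stimulated with calcium chloride; luminescent beta-galactosidase reporter signal in whole cells rather than isolated phosphatase activity; potency for inhibition where a drop in reporter signal means calcineurin blockade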
T1 sequence (B9W6M3 whole entry): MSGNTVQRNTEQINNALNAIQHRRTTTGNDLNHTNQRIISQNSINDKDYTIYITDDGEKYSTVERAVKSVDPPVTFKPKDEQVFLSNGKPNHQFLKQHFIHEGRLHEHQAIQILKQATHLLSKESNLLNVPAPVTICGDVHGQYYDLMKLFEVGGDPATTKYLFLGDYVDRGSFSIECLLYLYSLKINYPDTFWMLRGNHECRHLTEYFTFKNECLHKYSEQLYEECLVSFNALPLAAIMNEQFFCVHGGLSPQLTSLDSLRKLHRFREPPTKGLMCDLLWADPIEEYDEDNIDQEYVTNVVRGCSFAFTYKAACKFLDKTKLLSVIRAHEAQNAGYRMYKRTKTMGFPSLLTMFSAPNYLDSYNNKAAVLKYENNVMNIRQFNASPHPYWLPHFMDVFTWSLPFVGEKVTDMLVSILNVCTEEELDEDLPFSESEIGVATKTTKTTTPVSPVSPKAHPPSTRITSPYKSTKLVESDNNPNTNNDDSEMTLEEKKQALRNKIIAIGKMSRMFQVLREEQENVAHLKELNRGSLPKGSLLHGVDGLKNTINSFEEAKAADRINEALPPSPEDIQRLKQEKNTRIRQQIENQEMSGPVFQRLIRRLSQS

[5] = molecular target: T1, Serine/threonine-protein phosphatase; assay: Fluorescence Cell-Based Secondary Assay to Identify Inhibitors of Calcineurin. [Related pubchem assays (depositor defined):AID1979, AID2007]; format: functional
INS1 = assay: beta cell apoptosis inhibitors, cytokine rescue, dose response, luminescence, retest (AID 449756); format: functional, cell-based; conditions: Rattus norvegicus;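 further: cell death triggered by IL-1 beta plus TNF-alpha plus IFN-gamma mixture; protective hits raise ATP signal compared with cytokine alone wells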
[6] = molecular target: ATP-dependent molecular chaperone HSP82 (Candida albicans (strain WO-1) (Yeast), UniProt C4YTQ8); assay: loss of DOC-induced GRE-beta-galactosidase reporter signal, dose response, Hsp90 inhibitor project, S. cerevisiae, luminescence (AID 2400); format: functional, cell-based;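 further: beta-galactosidase luminescence from glucocorticoid response element reporter as proxy for Hsp90 function; inhibitor potency where signal loss means Hsp90 inhibition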
[7] = Shn3 3'UTR reporter inhibitors, dose response, cell-based, Clone20 osteoblasts, firefly luciferase, cherry-picked (AID 624132); format: functional;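 further: firefly luciferase luminescence from reporter carrying the Shn3 3'UTR in osteoblasts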
[8] = HepG2 cell cytotoxicity, dose response, cytotoxicity control for Shn3 inhibitor project, CellTiter-Glo, cherry-picked (AID 624134); format: functional, cell-based
[9] = control 3'UTR Renilla luciferase suppression, dose response, counter-screen for Shn3 inhibitor project, cell-based, Clone20-Shn3RL, cherry-picked (AID 624133); format: functional
Protein skinhead-1 = molecular target: T2, Protein skinhead-1 (Caenorhabditis elegans, UniProt P34707); format: functional
T2 sequence (P34707 whole entry): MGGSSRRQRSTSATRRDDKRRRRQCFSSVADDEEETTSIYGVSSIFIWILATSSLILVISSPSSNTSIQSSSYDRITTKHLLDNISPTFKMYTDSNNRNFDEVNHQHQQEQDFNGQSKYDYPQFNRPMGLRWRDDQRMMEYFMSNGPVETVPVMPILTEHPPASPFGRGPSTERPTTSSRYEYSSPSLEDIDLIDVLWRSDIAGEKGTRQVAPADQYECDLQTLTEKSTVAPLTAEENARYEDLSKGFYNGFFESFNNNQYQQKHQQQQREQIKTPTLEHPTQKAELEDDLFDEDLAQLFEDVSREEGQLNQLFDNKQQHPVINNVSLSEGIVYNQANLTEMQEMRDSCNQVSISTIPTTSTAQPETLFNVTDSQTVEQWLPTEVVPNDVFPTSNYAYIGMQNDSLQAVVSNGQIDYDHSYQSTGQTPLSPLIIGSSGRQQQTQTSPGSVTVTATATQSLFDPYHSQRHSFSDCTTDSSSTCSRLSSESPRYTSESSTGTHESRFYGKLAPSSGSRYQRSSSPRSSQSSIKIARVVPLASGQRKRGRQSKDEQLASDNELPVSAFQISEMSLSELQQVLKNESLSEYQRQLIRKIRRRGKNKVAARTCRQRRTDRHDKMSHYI

[10] = reduction of Shn3 3'UTR firefly luciferase signal, dose response, Schnurri-3 inhibitor project, cell-based, Clone20 osteoblasts, cherry-pick, set 2 (AID 720490); format: functional;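 further: actives lower the luminescence signal as inhibitors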
[11] = inhibitors of control Renilla luciferase reporter, dose response, counter-screen for Shn3 3'UTR targeting project, Clone20-Shn3RL cells, dual-Glo, cherry-pick, set 2 (AID 720724); format: functional, cell-based; conditions: Dual-Go Shn3RL
[12] = molecular target: Intestinal-type alkaline phosphatase (Mus musculus, UniProt P24822); assay: PubChem AID 488785; format: functional
[13] = molecular target: T3, Alkaline phosphatase, tissue-nonspecific isozyme (Homo sapiens, UniProt P05186); assay: TNAP enzyme inhibition by screening hits, dose response, selectivity assay for mouse IAP inhibitor project, biochemical, human TNAP, uHTS hits (AID 488906); format: functional
T3 sequence (P05186 whole entry): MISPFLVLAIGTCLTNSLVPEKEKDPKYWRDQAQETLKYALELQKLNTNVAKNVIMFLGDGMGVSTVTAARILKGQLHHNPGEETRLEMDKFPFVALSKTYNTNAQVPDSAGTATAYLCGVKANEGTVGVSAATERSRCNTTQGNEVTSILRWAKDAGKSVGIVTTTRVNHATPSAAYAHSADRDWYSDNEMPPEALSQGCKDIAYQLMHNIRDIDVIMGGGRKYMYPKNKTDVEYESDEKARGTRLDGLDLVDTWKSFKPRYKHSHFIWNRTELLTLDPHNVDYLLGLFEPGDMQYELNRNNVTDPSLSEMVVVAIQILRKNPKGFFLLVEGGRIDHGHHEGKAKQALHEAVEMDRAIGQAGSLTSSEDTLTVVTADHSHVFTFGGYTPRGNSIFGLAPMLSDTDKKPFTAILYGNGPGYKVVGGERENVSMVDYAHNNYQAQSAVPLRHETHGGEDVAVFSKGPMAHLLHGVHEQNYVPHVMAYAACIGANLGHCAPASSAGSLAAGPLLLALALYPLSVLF

[14] = molecular target: Intestinal-type alkaline phosphatase (Homo sapiens, UniProt P09923); assay: inhibition of human intestinal alkaline phosphatase – biochemical, dose response (AID 488876); format: functional
[15] = molecular target: T4, Methionyl-tRNA synthetase, putative (Trypanosoma brucei brucei, UniProt Q38C91); format: functional, Trypanosoma brucei brucei strain 927/4 GUTat10.1
T4 sequence (Q38C91 whole entry): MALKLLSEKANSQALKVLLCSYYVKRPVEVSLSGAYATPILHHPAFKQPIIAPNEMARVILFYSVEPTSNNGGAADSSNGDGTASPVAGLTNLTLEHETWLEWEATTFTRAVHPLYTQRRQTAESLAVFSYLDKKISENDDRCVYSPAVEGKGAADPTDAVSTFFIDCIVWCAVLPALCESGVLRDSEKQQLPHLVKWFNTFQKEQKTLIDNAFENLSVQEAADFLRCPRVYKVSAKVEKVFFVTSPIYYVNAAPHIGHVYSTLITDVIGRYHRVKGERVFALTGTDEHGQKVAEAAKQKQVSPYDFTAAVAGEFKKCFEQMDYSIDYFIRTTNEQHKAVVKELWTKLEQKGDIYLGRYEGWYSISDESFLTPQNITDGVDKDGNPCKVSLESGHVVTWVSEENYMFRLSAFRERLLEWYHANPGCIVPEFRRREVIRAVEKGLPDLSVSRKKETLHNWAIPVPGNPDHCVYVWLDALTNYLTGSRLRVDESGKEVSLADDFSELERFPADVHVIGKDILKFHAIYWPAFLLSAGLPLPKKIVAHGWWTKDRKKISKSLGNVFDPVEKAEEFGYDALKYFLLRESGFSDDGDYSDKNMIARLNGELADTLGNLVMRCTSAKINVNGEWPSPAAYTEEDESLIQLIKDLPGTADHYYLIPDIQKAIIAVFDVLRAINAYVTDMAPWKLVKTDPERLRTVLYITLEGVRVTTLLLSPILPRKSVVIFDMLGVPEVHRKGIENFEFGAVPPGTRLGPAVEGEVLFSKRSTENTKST

[16] = Counterscreen for inhibitors of Trypanosoma brucei methionyl tRNA synthetase (MetRS): Luminescence-based cell-based high throughput dose response assay to identify compounds that are cytotoxic to Jurkat human T lymphocyte cells.; format: functional
[17] = molecular target: T4, Methionyl-tRNA synthetase, putative; format: functional, Trypanosoma brucei brucei strain 927/4 GUTat10.1; remark: listed apart in the source
[18] = ADAM10 inhibitors, peptide cleavage, dose response, biochemical, QFRET (AID 743254);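 further: ADAM10 enzyme with the DM2 quenched FRET peptide as substrate; EDANS fluorescence gain as the protease cuts the substrate; inhibitor potency against ADAM10 proteolytic activity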
[19] = molecular target: Disintegrin and metalloproteinase domain-containing protein 17 (Homo sapiens, UniProt P78536); assay: ADAM17 protease inhibitors, dose response, counter-screen for ADAM10 exosite inhibitor project, biochemical, quenched FRET substrate (AID 743253)
Disintegrin and metalloproteinase domain-containing protein 17, sequence (P78536 whole entry, the tested form may be a part): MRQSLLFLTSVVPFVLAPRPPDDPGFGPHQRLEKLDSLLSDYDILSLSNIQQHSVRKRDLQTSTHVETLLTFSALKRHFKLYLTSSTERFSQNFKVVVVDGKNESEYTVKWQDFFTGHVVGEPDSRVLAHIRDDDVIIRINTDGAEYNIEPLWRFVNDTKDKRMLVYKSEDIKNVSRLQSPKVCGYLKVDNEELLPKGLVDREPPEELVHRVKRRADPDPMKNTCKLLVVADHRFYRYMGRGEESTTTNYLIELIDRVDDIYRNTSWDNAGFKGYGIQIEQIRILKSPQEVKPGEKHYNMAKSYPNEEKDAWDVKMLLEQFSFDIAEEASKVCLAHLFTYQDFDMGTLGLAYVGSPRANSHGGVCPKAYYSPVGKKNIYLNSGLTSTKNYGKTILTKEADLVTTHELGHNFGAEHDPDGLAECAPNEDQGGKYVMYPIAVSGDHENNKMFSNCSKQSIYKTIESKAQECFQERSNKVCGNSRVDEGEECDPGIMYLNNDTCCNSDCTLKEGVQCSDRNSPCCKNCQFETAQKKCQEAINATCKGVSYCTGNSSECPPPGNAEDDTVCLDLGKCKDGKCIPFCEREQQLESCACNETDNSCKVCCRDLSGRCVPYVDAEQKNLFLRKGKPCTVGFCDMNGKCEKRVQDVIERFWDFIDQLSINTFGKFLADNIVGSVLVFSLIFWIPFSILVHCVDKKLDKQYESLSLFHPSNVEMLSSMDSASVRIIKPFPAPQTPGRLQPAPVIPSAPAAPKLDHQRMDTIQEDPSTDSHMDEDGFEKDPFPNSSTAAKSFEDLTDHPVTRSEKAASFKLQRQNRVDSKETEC

NAD-dependent protein deacylase sirtuin-5, mitochondrial, sequence (Q9NXA8 whole entry): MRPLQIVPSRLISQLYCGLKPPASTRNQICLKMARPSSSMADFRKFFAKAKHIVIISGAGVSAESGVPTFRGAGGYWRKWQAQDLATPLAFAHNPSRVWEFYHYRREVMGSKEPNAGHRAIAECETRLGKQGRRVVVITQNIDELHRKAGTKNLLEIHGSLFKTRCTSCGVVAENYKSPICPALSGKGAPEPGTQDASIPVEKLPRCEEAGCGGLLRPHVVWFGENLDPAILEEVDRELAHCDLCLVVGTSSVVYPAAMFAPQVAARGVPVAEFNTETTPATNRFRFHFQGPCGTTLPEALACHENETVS
Intestinal-type alkaline phosphatase (Homo sapiens, UniProt P09923), sequence (P09923 whole entry): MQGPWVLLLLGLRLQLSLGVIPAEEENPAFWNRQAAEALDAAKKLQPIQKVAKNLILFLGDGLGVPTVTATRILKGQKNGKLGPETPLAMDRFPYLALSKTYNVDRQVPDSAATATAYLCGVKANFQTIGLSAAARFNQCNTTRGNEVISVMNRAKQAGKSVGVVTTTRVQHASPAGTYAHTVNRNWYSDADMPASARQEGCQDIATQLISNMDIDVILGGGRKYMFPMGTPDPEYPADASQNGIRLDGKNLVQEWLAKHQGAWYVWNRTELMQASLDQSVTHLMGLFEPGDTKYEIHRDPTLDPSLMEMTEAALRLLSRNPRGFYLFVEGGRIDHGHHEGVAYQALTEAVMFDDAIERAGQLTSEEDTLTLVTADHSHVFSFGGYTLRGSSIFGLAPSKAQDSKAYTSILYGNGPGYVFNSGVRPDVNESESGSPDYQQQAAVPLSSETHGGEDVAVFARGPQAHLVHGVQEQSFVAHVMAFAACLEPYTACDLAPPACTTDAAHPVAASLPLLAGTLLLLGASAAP
Kallikrein-7, sequence (P49862 whole entry): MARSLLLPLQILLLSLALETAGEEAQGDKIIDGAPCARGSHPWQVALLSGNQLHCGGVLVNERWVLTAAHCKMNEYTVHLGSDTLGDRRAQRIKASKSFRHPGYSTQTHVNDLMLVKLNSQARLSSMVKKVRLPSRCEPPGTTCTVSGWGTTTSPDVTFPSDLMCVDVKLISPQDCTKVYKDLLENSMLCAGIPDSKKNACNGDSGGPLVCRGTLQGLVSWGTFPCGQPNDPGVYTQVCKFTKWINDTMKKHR
Intestinal-type alkaline phosphatase (Mus musculus, UniProt P24822), sequence (P24822 whole entry): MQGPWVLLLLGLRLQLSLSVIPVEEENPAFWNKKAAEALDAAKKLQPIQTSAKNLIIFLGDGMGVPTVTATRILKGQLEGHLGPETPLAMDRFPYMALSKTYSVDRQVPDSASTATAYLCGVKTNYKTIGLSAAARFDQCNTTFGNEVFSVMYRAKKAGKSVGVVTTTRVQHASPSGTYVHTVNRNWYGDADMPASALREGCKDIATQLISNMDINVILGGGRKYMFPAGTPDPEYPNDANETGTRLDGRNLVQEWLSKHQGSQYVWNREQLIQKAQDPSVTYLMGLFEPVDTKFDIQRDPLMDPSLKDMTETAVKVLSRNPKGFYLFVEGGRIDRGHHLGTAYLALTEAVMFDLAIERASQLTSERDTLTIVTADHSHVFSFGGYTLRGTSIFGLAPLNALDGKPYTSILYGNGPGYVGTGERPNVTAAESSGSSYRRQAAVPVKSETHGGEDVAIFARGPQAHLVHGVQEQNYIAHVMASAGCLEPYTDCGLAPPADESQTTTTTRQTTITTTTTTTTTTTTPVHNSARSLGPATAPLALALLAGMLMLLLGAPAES
ATP-dependent molecular chaperone HSP82, sequence (C4YTQ8 whole entry): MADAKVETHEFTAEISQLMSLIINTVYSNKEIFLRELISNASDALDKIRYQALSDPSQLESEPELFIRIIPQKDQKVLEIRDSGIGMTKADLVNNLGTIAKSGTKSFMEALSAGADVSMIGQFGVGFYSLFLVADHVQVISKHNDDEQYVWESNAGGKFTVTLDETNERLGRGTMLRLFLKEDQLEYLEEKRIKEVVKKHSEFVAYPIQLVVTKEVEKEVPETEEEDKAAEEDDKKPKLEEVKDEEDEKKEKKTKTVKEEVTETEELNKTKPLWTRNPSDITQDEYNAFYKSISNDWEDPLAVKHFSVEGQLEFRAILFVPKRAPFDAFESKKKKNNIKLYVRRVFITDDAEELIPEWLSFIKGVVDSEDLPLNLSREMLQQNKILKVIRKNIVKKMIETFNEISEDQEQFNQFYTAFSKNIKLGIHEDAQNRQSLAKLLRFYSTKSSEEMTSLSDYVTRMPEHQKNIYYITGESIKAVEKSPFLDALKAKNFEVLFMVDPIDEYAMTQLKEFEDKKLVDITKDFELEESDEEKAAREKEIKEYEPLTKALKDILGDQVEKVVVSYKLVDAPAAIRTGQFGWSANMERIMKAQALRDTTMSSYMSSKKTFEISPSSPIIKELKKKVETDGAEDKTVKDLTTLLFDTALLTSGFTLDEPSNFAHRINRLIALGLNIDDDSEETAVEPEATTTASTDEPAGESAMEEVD

CCOC(=O)c1cnc(-n2nc(C)cc2C)nc1Oc1ccccc1F
inactive: AC50 [1] > 30 µM

CCN1CCN(C(=O)COc2ccc3c(c2)C(=O)CC2(CCN(C(C)=O)CC2)O3)CC1
active: EC50 (Kallikrein-7) > 2.58 µM

Cc1nc2ccccc2cc1OCc1ccc(F)cc1
inactive: EC50 [2] > 160 µM | EC50 [4] > 180 µM | EC50 [5] > 285 µM
active: EC50 [3] 1.58 µM | AC50 (INS1) 4.84 µM | EC50 [6] 21.1 µM | AC50 [7] 1.7 µM | AC50 [8] 41.7 µM | AC50 [9] 22.1 µM | IC50 (Protein skinhead-1) 12.2 µM | AC50 [10] 2.05 µM | AC50 [11] 4.87 µM

CCc1cc(Cn2nc(-c3ccccc3)cc2C(=O)NCc2cccc(Br)c2)on1
active: IC50 [12] 12.9 µM | IC50 [13] 54.9 µM | IC50 [15] 2.93 µM | IC50 [17] 1.66 µM
inactive: IC50 [14] > 100 µM | IC50 [16] 83.3 µM | IC50 [18] > 69.5 µM | IC50 [19] > 69.5 µM
